For the assay, the target named is IDO (Homo sapiens (Human), UniProt P14902). The assay is described as follows: Kynurenine assay in IFN-γ-stimulated Hela cells. It is filed as cell-based. As to conditions: 20 h, read-out: Hela Kyurenine (IC50). As to the method: Reagents: Hela cells (ATCC, CCL-2)
Chain of IDO (P14902 whole entry): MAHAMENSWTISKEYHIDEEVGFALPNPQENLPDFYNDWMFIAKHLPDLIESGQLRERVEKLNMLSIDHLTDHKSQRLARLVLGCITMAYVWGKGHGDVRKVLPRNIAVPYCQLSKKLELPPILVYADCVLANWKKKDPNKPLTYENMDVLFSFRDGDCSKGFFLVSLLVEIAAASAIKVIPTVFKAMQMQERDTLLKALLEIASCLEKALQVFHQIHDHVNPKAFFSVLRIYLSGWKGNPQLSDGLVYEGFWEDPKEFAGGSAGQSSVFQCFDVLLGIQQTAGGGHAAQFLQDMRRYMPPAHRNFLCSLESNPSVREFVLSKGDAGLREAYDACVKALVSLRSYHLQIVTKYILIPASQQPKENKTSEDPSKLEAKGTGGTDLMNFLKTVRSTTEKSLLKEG
IFNg (R&D, 28-IF-100)—resuspend at 10 ug/mL in PBS with 0.1% BSA 30% TCA
Ehrlich reagent (2% w/v p-dimethylaminobenzaldehyde in glacial acetic acid)
Cell Lines and Culture Conditions
Hela cancer cell lines were acquired from the American Type Culture Collection. Cells were maintained in phenol red free-RPMI1640 medium containing high glucose and L-glutamine (Invitrogen) supplemented with 10% fetal bovine serum (FBS; Invitrogen). Cell cultures were incubated at 37° C., 5% CO2, and 100% humidity.
Cell Treatment and Kynurenine Assay
Hela cells were seeded on 96-well plates (40,000 cells per well) and allowed to adhere for 5-6 hours. Cells were then treated with vehicle (DMSO) or with IDO inhibitor at a top dose of 30 μM (3-fold dilution all the way down to 1.5 nM). A final concentration of 100 ng/mL of human recombinant IFN-γ (R&D, 28-IF-100) was immediately added to the cells to stimulate IDO expression. Treated cells were then incubated for 20 hours at 37° C. At the end of the 20 h incubation, reactions were terminated by the addition of 30% TCA to each well. Plates were incubated for 30 minutes at 50° C. to hydrolyze N-formylkynurenine to kynurenine. Cells were centrifuged 10 minutes at 2400 rpm. 100 ul of supernatants were transferred to new 96 flat well plates and mixed with 100 ul Ehrlich reagent. The resulting solution was incubated 10 minutes at RT. Absorbance at 490 nm was read using Spectra Max 384 (Molecular Devices).
For the compound `CC(C)(C)c1ccccc1Oc1ccc(-c2cc(C(=O)O)ccc2F)cc1NC(=O)Nc1ccc(OC(F)(F)F)cc1` [Example 261, 4′-(2-tert-butylphenoxy)-6-fluoro-3′-(3-(4-(trifluoromethoxy)phenyl)ureido) biphenyl-3-carboxylic acid], the IC50 worked out at 420 nM. Under `COc1ccc(-c2ccc(Oc3c(C)cccc3C(C)(C)C)c(NC(=O)Nc3ccc(C)cc3)c2)cc1C(=O)O` [Example 61, 4′-(2-tert-butyl-6-methylphenoxy)-4-methoxy-3′-(3-p-tolylureido)biphenyl-3-carboxylic acid] stands 310 nM. Under `COc1ccc(-c2ccc(Oc3ccccc3C(C)(C)C)c(NC(=O)Nc3c(F)cccc3F)c2)cc1C(=O)O` [Example 80, 4′-(2-(tert-butyl)phenoxy)-3′-(3-(2,6-difluorophenyl)ureido)-4-methoxy-[1,1′-biphenyl]-3-carboxylic acid] stands 130 nM; under `Cc1ccc(NC(=O)Nc2cc(-c3ccc(C(=O)O)cc3)cnc2Oc2ccccc2)cc1` [Example 338], 87900 nM. Turning to `COc1ccc(-c2ccc(Oc3ccccc3Cl)c(NC(=O)Nc3ccccc3C(F)(F)F)c2)cc1C(=O)O` [Example 52, 4′-(2-chlorophenoxy)-4-methoxy-3′-(3-(2-(trifluoromethyl)phenyl)ureido)biphenyl-3-carboxylic acid], the IC50 was determined as 1270 nM.

On to `O=C(Nc1ccccc1Cl)Nc1cc(-c2cccc(C(=O)O)c2)ccc1Oc1ccc(Cl)cc1` [Example 242, 4′-(4-chlorophenoxy)-3′-(3-(2-chlorophenyl)ureido)biphenyl-3-carboxylic acid], for which the IC50 is 1150 nM. The value for `Cc1ccc(NC(=O)Nc2cc(-c3ccccc3-c3nnn[nH]3)ccc2Oc2ccccc2C(C)(C)C)cc1` [Example 4, 1-(4-(2-tert-Butylphenoxy)-2′-(1H-tetrazol-5-yl)biphenyl-3-yl)-3-p-tolylurea] was 30 nM; that for `O=C(Nc1ccccc1)Nc1cc(-c2ccccc2-c2nnn[nH]2)ccc1Oc1cccc2c1CCCC2` [Example 184, 1-phenyl-3-(4-(5,6,7,8-tetrahydronaphthalen-1-yloxy)-2′-(1H-tetrazol-5-yl)biphenyl-3-yl)urea] was 1100 nM; that for `CCc1ccccc1Oc1ccc(-c2ccc(OC)c(C(=O)O)c2)cc1NC(=O)Nc1ccc(C(F)(F)F)cc1` [Example 48, 4′-(2-ethylphenoxy)-4-methoxy-3′-(3-(4-(trifluoromethyl)phenyl)ureido)biphenyl-3-carboxylic acid] was 1230 nM. Under `COc1ccc(Cl)cc1NC(=O)Nc1cc(-c2ccc(OC)c(C(=O)O)c2)ccc1Oc1ccccc1C(C)(C)C` [Example 109, 4′-(2-(tert-butyl)phenoxy)-3′-(3-(5-chloro-2-methoxyphenyl)ureido)-4-methoxy-[1,1′-biphenyl]-3-carboxylic acid] stands 600 nM; under `COc1ccc(NC(=O)Nc2cc(-c3ccc(OC)c(C(=O)O)c3)ccc2Oc2ccccc2C(C)(C)C)c(C)c1` [Example 93, 4′-(2-(tert-butyl)phenoxy)-4-methoxy-3′-(3-(4-methoxy-2-methylphenyl)ureido)-[1,1′-biphenyl]-3-carboxylic acid], 620 nM. In the case of `C#CCNC(=O)Nc1cc(-c2ccc(OC)c(C(=O)O)c2)ccc1Oc1ccccc1C(C)(C)C` [Example 119, 4′-(2-tert-butylphenoxy)-4-methoxy-3′-(3-prop-2-ynylureido)biphenyl-3-carboxylic acid], the IC50 was 780 nM. The value for `O=C(Nc1ccccc1Cl)Nc1cc(-c2cccc(C(=O)O)c2)ccc1Oc1ccccc1C(F)(F)F` [Example 259, 3′-(3-(2-chlorophenyl)ureido)-4'-(2-(trifluoromethyl)phenoxy) biphenyl-3-carboxylic acid] was 2210 nM; that for `Cc1ccc(NC(=O)Nc2cc(-c3ccc(C(=O)O)cc3)ccc2Oc2ccccc2C(C)(C)C)cc1` [Example 256, 4′-(2-tert-butylphenoxy)-3′-(3-p-tolylureido) biphenyl-4-carboxylic acid] was 310 nM. The value for `Cc1ccccc1NC(=O)Nc1cc(-c2ccc(C(=O)O)cc2)ccc1Oc1ccccc1C(C)(C)C` [Example 200, 4′-(2-tert-butylphenoxy)-3′-- (3-o-tolylureido) biphenyl-4-carboxylic acid] was 1520 nM. Under `COc1ccc(-c2ccc(Oc3ccccc3C(C)(C)C)c(NC(=O)Nc3ccc(C)c(C)c3)c2)cc1C(=O)O` [Example 96, 4′-(2-(tert-butyl)phenoxy)-3′-(3-(3,4-dimethylphenyl)ureido)-4-methoxy-[1,1′-biphenyl]-3-carboxylic acid] stands 180 nM; under `Cc1cccc(NC(=O)Nc2cc(-c3cc(F)cc(C(=O)O)c3)ccc2Oc2ccccc2C(C)(C)C)c1` [Example 251, 4′-(2-tert-butylphenoxy)-5-fluoro-3′-(3-m-tolylureido) biphenyl-3-carboxylic acid], 740 nM; under `COc1ccc(-c2ccc(Oc3ccccc3C(C)(C)C)c(NC(=O)Nc3cccc(F)c3)c2)cc1C(=O)O` [Example 84, 4′-(2-(tert-butyl)phenoxy)-3′-(3-(3-fluorophenyl)ureido)-4-methoxy-[1,1′-biphenyl]-3-carboxylic acid], 160 nM. `Cc1ccc(NC(=O)Nc2cc(-c3ccccc3C(=O)NS(C)(=O)=O)ccc2Oc2ccccc2C(C)(C)C)cc1` [Example 6, 4′-(2-tert-Butylphenoxy)-N-(methylsulfonyl)-3′-(3-p-tolylureido)biphenyl-2-carboxamide]: the IC50 came to 730 nM. The value for `CC(C)(C)c1ccccc1Oc1ccc(-c2cc(F)cc(C(=O)O)c2)cc1NC(=O)Nc1ccccc1Cl` [Example 253, 4′-(2-tert-butylphenoxy)-3′-(3-(2-chlorophenyl)ureido)-5-fluorobiphenyl-3-carboxylic acid] was 1100 nM; that for `CCc1ccc(NC(=O)Nc2cc(-c3ccc(OC)c(C(=O)O)c3)ccc2Oc2ccccc2C(C)(C)C)cc1` [Example 67, 4′-(2-tert-butylphenoxy)-3′-(3-(4-ethylphenyl)ureido)-4-methoxybiphenyl-3-carboxylic acid] was 580 nM; that for `COc1ccc(-c2ccc(Oc3ccccc3C)c(NC(=O)Nc3ccccc3C)c2)cc1C(=O)O` [Example 72, 4-methoxy-4′-(o-tolyloxy)-3′-(3-o-tolylureido)biphenyl-3-carboxylic acid] was 380 nM. As for `CC(C)(C)c1ccccc1Oc1ccc(-c2cccc(C(=O)O)c2)cc1NC(=O)NC1CCCCC1` [Example 221, 4′-(2-tert-butylphenoxy)-3′-(3-cyclohexylureido) biphenyl-3-carboxylic acid], the IC50 is 1010 nM. Under `CC(C)(C)c1ccccc1Oc1ccc(-c2ccc(C(=O)O)cc2)cc1NC(=O)Nc1ccc(OC(F)(F)F)cc1` [Example 265, 4′-(2-tert-butylphenoxy)-3′-(3-(4-(trifluoromethoxy)phenyl)ureido)biphenyl-4-carboxylic acid] stands 3460 nM; under `COc1ccc(NC(=O)Nc2cc(-c3ccc(OC)c(C(=O)O)c3)ccc2Oc2ccccc2C(C)(C)C)cc1` [Example 87, 4′-(2-(tert-butyl)phenoxy)-3′-(3-(4-methoxyphenyl)ureido)-4-methoxy-[1,1′-biphenyl]-3-carboxylic acid], 280 nM.

What is called IC50 is the concentration at which inhibition is half-maximal.

(Values after US9765018B2, “IDO inhibitors” (BRISTOL-MYERS SQUIBB COMPANY, priority 2013, dated 2017).)
